Where two headings read alike, the source gives them in different places.
How the values were obtained:
[1] = test system: NCI panel of 60 tumor cell lines; experiment: NCI SRB growth inhibition, whole panel mean (single dose 10 µM / five-dose); type: cell-based, human; conditions: for GI50: mean over NCI cancer cell lines, five-dose
Procedure: Screening of cytotoxic activity against a panel of sixty human tumor cell lines The selected compounds by NCI were evaluated for their anticancer activity in a two- stage process. […] Then, the output from the single dose screen is reported as a mean graph. […] Assay protocol. […] For a typical screening experiment, cells are inoculated into 96 well microtiter plates in 100 µL at plating densities ranging from 5000 to 40,000 cells/well depending on the doubling time of individual cell lines. […] After 24 h, two plates of each cell line are fixed in situ with TCA, to represent a measurement of the cell population for each cell line at the time of drug addition (Tz). The experimental drugs are solubilized in dimethyl sulfoxide at 400-fold the desired final maximum test concentration and stored frozen prior to use. At the time of drug addition, an aliquot of frozen concentrate is thawed and diluted to twice the desired final maximum test concentration with complete medium containing 50 µg/mL gentamicin. Additional four, 10-fold or ½ log serial dilutions are made to provide a total of five drug concentrations plus control. Aliquots of 100 mL of these different drug dilutions are added to the appropriate microtiter wells already containing […] of medium, resulting in the required final drug concentrations. […] For adherent cells, the assay is terminated by the addition of cold TCA. […] The supernatant is discarded, and the plates are washed five times with tap water and air dried. Sulforhodamine B (SRB) solution ([…]) at 0.4% (w/v) in 1% acetic acid is added to each well, and plates are incubated for 10 min at room temperature. After staining, unbound dye is removed by washing five times with 1% acetic acid and the plates are air dried. […] Using the seven absorbance measurements [time zero, (Tz), control growth, (C), and test growth in the presence of drug at the five concentration levels (Ti)], the percentage growth is calculated at each of the drug concentrations levels. Percentage growth inhibition is calculated as: [(Ti Tz)/(C–Tz)] x 100 for concentrations for which Ti>/=Tz and [(Ti-Tz)/Tz] x 100 for concentrations for which Ti < Tz. Three dose response parameters are calculated for each experimental agent. […] The drug concentration resulting in total growth inhibition (TGI) is calculated from Ti = Tz. […] Values are calculated for each of these three parameters if the level of activity is reached; however, if the effect is not reached or is exceeded, the value for that parameter is expressed as greater or less than the maximum or minimum concentration tested.

[2] = test system: TK-10; experiment: NCI SRB growth inhibition (single dose 10 µM / five-dose); type: cell-based, human; conditions: for inhibition at 10 µM: read-out: GI%; for GI50: TK-10, Renal cancer, five-dose
Method in brief: (§1)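 Cells plated at 5000–40,000 cells/well by doubling time; time-zero plates TCA-fixed after 24 h. Compounds (DMSO stocks) added at five 10-fold or ½-log concentrations plus control. Adherent cells TCA-fixed, stained with 0.4% SRB in 1% acetic acid; percentage growth from Tz, C and Ti absorbances.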

[3] = test system: HOP-62; experiment: as above; type: cell-based, human; conditions: for GI50: HOP-62, Non-small cell lung cancer, five-dose; for inhibition at 10 µM: read-out: GI%
Method in brief: as §1

[4] = test system: HOP-92; experiment: as above; type: cell-based, human; conditions: for inhibition at 10 µM: read-out: GI%
Method in brief: as §1

[5] = test system: HCT-116; experiment: as above; type: cell-based, human; conditions: for inhibition at 10 µM: read-out: GI%
Method in brief: as §1

[6] = test system: RPMI-8226; experiment: as above; type: cell-based, human; conditions: for inhibition at 10 µM: read-out: GI%; for GI50: RPMI-8226, Leukemia, five-dose
Method in brief: as §1

[7] = test system: HCC-2998; experiment: as above; type: cell-based, human; conditions: for inhibition at 10 µM: read-out: GI%; for GI50: HCC-2998, Colon cancer, five-dose
Method in brief: as §1

[8] = test system: UACC-257; experiment: as above; type: cell-based, human; conditions: for inhibition at 10 µM: read-out: GI%; for GI50: UACC-257, Melanoma, five-dose
Method in brief: as §1

[9] = test system: SNB-75; experiment: as above; type: cell-based, human; conditions: for inhibition at 10 µM: read-out: GI%; for GI50: SNB-75, CNS cancer, five-dose
Method in brief: as §1

[10] = target: T1, VEGFR-2 (Homo sapiens, UniProt P35968); experiment: VEGFR-2 kinase assay kit (BPS), Kinase-Glo Max luminescence; type: biochemical; conditions: VEGFR-2, single dose 10 µM, duplicate, mean ± SD
T1 construct: purchased BPS Biosciences 40325
T1 sequence (P35968 20-1356): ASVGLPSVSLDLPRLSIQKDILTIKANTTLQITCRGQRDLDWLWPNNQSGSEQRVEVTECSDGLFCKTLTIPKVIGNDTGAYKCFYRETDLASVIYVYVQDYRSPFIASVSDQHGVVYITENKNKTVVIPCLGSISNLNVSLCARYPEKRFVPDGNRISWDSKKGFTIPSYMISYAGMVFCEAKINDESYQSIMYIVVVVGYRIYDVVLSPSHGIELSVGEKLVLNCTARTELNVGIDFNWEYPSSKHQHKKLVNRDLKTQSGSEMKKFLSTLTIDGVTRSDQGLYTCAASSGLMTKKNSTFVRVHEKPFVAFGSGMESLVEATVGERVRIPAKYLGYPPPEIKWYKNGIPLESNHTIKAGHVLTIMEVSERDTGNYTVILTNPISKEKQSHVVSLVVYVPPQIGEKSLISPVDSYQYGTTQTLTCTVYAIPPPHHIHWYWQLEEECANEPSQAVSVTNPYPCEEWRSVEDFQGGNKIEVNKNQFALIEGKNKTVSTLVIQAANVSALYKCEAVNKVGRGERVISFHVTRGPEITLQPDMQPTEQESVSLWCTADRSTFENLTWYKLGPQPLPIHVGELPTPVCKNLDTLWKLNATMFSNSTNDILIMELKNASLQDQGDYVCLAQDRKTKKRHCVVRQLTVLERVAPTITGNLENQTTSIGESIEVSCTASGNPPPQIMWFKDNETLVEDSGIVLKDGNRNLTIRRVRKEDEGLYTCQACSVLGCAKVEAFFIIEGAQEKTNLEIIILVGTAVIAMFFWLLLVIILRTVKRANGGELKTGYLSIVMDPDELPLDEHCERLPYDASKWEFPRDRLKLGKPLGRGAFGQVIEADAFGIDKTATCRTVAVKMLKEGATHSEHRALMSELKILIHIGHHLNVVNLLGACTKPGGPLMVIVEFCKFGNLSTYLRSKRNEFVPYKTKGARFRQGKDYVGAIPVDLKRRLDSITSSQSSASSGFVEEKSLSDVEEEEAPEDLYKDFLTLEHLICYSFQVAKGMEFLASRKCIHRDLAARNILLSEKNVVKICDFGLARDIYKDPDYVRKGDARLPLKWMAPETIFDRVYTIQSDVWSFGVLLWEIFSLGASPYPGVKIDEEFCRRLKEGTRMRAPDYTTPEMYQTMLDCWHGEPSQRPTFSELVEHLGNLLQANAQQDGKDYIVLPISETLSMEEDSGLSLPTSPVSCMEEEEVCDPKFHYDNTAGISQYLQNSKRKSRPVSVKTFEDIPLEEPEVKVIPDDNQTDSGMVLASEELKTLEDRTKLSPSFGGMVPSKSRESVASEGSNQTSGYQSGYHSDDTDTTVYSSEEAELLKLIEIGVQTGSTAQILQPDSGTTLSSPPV
Procedure: 2. Biochemical kinase assay procedure
The inhibitory activity against different kinases was determined using kinase kits […]
from BPS Biosciences and kinase-Glo Max luminescence kinase assay kit (Promega).
The assay was carried out according to the protocol provided by the manufacturer. A stock solution of the synthesized derivatives in 100% DMSO was prepared. Subsequently, the compounds were diluted to 10% DMSO.
A master mixture was prepared according to the number of wells. For VEGFR-2 and FGFR-1 biochemical assays each well include 6 μl of 5x Kinase Buffer 1 + 1 μl of 500 μM ATP + 1 μl of PTK Substrate (Poly-Glu,Tyr 4:1) (10 mg/ml) + 17 μl of distilled water. For BRAF assay each well include 6 μl of 5x Kinase Buffer 1 + 1 μl of ATP (500 μM) + 10 μl of 5X Raf substrate + 8 μl of distilled water. 1x Kinase buffer 1 was prepared by mixing 600 μl of 5x Kinase Buffer 1 with 2400 μl water to give 3 mL. Kinases were thawed on ice and were diluted with 1x Kinase Buffer 1.
To start the biochemical reaction, 25 µL of the master mixture was added to each well in 96 well plate. 5 µL of 10% DMSO was added to positive control wells and blank wells. 5 µL of diluted inhibitor was added to each well labelled with the test inhibitor so that the final concentration of DMSO is 1% in all reactions. Then 20 µL of (1 ng / μl) in case of VEGFR-2 and FGFR-1 or (2.5 ng/μl) in case of BRAF in 1x kinase buffer was added to positive control wells and wells labelled with the inhibitor, while 20 µL 1x kinase buffer 1 was added to the […]
The plate was incubated at 30 °C for 45 min. Subsequently, 50 μl of Kinase-Glo Max luminescence reagent was added to each well and the plate was covered with aluminum foil and incubated at room temperature 15 min. Finally, the luminescence was recorded using multimode microplate reader. Kinase activity assays were performed in duplicate at each […]
The luminescence data were analyzed as follows. The difference between luminescence intensities in the absence of kinase (Lut) and in the presence of kinase (Luc) was defined as 100 % activity (Lut – Luc). Using luminescence signal (Lu) in the presence of the compound, % activity was calculated as: % activity = {(Lut - Lu)/(Lut - Luc)}×100%. The […]
concentration of the test compounds required to reduce the kinase activity by 50% was determined from dose-response curves and recorded as their IC50. […]

[11] = Homo sapiens, 10 µM, mean over NCI 60 cell lines, > 100% = lethal effect, read-out: mean growth inhibition % (GI%)
[12] = Homo sapiens, mean over NCI panel of 60 tumor cell lines, 10 µM, read-out: Mean growth inhibition %
[13] = Homo sapiens, TK-10 (Renal cancer), 10 µM
[14] = Homo sapiens, HOP-92 (Non-small cell lung cancer), 10 µM
[15] = Homo sapiens, RPMI-8226 (Leukemia), 10 µM
[16] = Homo sapiens, HCC-2998 (Colon cancer), 10 µM
[17] = Homo sapiens, UACC-257 (Melanoma), 10 µM
[18] = Homo sapiens, SNB-75 (CNS cancer), 10 µM
[19] = Homo sapiens, HOP-62 (Non-small cell lung cancer), 10 µM

Compound	inhibition at 10 µM [1, 11] [%]	inhibition at 10 µM [1, 12] [%]	inhibition at 10 µM [2, 13] [%]	inhibition at 10 µM [4, 14] [%]	inhibition at 10 µM ([5]; Homo sapiens, HCT-116) [%]	inhibition at 10 µM [6, 15] [%]	inhibition at 10 µM [7, 16] [%]	inhibition at 10 µM [8, 17] [%]	inhibition at 10 µM [9, 18] [%]	inhibition at 10 µM [10] [%]	also measured
COc1cccc(C=NNC(=O)c2ccc3[nH]c(-c4ccccc4)nc3c2)c1O [8d, N'-(2-hydroxy-3-methoxybenzylidene)-2-phenyl-1H-benzo[d]imidazole-5-carbohydrazide]	92.5	92.5	50.6	68.4	97.4	98.5	98.5	> 100	99.2	53.8 ± 2.62	GI50 ([1]; Homo sapiens): 2.62 µM; GI50 ([2]; Homo sapiens): 4.78 µM; GI50 ([3]; Homo sapiens): 1.65 µM; GI50 ([4]; Homo sapiens, HOP-92, Non-small cell lung cancer, five-dose): 1.58 µM; GI50 ([5]; Homo sapiens, HCT-116): 1.84 µM; GI50 ([6]; Homo sapiens): 1.86 µM; GI50 ([7]; Homo sapiens): 1.79 µM; GI50 ([8]; Homo sapiens): 2.34 µM
COc1ccc(-c2nc3cc(C(=O)NN=Cc4cccc(OC)c4)ccc3[nH]2)cc1 [8j, N'-(3-Methoxybenzylidene)-2-(4-methoxyphenyl)-1H-benzo[d]imidazole-5-carbohydrazide]	100	> 100	> 100	> 100	> 100	> 100	88.5	57.7	> 100	15.7 ± 1.41	GI50 ([1]; Homo sapiens): 5.24 µM; GI50 ([2]; Homo sapiens): 12.6 µM; inhibition at 10 µM [3, 19]: > 100%; GI50 ([3]; Homo sapiens): 2.7 µM; GI50 ([5]; Homo sapiens, HCT-116): 2.99 µM; GI50 ([6]; Homo sapiens): 4.14 µM; GI50 ([7]; Homo sapiens): 3.52 µM; GI50 ([8]; Homo sapiens): 11 µM; GI50 ([9]; Homo sapiens): 1.78 µM
COc1ccc(C=NNC(=O)c2ccc3[nH]c(-c4ccc(Cl)cc4)nc3c2)cc1O [8s, 2-(4-Chlorophenyl)-N'-(3-hydroxy-4-methoxybenzylidene)-1H-benzo[d]imidazole-5-carbohydrazide]	49.5	49.5	< 5	< 5	69.5	> 100	86.8	24.6	6.41	26.7 ± 1.83	–
COc1ccc(C=NNC(=O)c2ccc3[nH]c(-c4ccccc4)nc3c2)cc1O [8e, N'-(3-Hydroxy-4-methoxybenzylidene)-2-phenyl-1H-benzo[d]imidazole-5-carbohydrazide]	16.8	16.8	< 5	6.3	15	23.4	< 5	13.8	< 5	36.4 ± 1.91	inhibition at 10 µM [3, 19]: 21.4%
N'-(2-Hydroxybenzylidene)-2-phenyl-1H-benzo[d]imidazole-5-carbohydrazide [8a]	–	–	–	–	–	–	–	–	–	–	mean growth inhibition % (GI%) ([1]; 10 µM, mean over NCI 60 cell lines, > 100% = lethal effect): 97.73%; GI50 [1]: 3 µM; Mean growth inhibition % ([1]; mean over NCI panel of 60 tumor cell lines, 10 µM): 97.73%; GI% ([2]; TK-10 (Renal cancer), 10 µM): 65.04%; GI50 [2]: 4.53 µM; GI% ([3]; HOP-62 (Non-small cell lung cancer), 10 µM): L (GI% > 100); GI50 [3]: 1.47 µM; GI% ([4]; HOP-92 (Non-small cell lung cancer), 10 µM): L (GI% > 100); GI% ([5]; HCT-116 (Colon cancer), 10 µM): L (GI% > 100); GI50 ([5]; HCT-116, Colon cancer, five-dose): 0.88 µM; GI% ([6]; RPMI-8226 (Leukemia), 10 µM): 88.59%; GI50 [6]: 1.19 µM; GI% ([7]; HCC-2998 (Colon cancer), 10 µM): 73.20%; GI50 [7]: 3.91 µM; GI% ([8]; UACC-257 (Melanoma), 10 µM): 88.80%; GI50 [8]: 4 µM; GI% ([9]; SNB-75 (CNS cancer), 10 µM): L (GI% > 100); GI50 [9]: 2.2 µM; % Inhibition [10]: 43.03 ± 2.32%
COc1cc(C=NNC(=O)c2ccc3[nH]c(-c4ccccc4)nc3c2)cc(OC)c1OC [8g, 2-Phenyl-N'-(3,4,5-trimethoxybenzylidene)-1H-benzo[d]imidazole-5-carbohydrazide]	36	36	6.66	< 5	41.6	86.9	44.3	54.3	< 5	47.9 ± 3.53	–
COc1ccc(OC)c(C=NNC(=O)c2ccc3[nH]c(-c4ccccc4)nc3c2)c1 [8f, N'-(2,5-Dimethoxybenzylidene)-2-phenyl-1H-benzo[d]imidazole-5-carbohydrazide]	33.7	33.7	19	7.1	52.5	81.3	8.92	< 5	< 5	58.3 ± 2.98	–
